Experimental data taken from patent US7452887B2, “Quinoline- and isoquinoline-based compounds exhibiting ATP-utilizing enzyme inhibitory activity, and compositions, and uses thereof” (Amphora Discovery Corporation, priority 2004, dated 2008).

Columns and labels:
Assay in all cases: HTS ATP-utilizing enzyme assay, off-chip mobility-shift (Caliper HTS 250)
Type in all cases: biochemical
Details in all cases: test compound 10 μM, kinase listed = active (greater than six-sigma from the mean activity of inactive compounds)
KIT = KIT (Homo sapiens, UniProt P10721)
How it was run: (§1)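 Steps: compound added at 10 μM final; enzyme then peptide substrate added in HEPES pH 7.5, Triton X-100, BSA buffer; incubation 2.5 hrs at 20° C. to 22° C.; EDTA quench; microfluidic separation of substrate and phosphoproduct. DMSO wells set 0% inhibition, EDTA wells 100%.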

FLT-3 = molecular target: T1, FLT-3 (Homo sapiens, UniProt P36888)
T1 sequence (P36888 27-993): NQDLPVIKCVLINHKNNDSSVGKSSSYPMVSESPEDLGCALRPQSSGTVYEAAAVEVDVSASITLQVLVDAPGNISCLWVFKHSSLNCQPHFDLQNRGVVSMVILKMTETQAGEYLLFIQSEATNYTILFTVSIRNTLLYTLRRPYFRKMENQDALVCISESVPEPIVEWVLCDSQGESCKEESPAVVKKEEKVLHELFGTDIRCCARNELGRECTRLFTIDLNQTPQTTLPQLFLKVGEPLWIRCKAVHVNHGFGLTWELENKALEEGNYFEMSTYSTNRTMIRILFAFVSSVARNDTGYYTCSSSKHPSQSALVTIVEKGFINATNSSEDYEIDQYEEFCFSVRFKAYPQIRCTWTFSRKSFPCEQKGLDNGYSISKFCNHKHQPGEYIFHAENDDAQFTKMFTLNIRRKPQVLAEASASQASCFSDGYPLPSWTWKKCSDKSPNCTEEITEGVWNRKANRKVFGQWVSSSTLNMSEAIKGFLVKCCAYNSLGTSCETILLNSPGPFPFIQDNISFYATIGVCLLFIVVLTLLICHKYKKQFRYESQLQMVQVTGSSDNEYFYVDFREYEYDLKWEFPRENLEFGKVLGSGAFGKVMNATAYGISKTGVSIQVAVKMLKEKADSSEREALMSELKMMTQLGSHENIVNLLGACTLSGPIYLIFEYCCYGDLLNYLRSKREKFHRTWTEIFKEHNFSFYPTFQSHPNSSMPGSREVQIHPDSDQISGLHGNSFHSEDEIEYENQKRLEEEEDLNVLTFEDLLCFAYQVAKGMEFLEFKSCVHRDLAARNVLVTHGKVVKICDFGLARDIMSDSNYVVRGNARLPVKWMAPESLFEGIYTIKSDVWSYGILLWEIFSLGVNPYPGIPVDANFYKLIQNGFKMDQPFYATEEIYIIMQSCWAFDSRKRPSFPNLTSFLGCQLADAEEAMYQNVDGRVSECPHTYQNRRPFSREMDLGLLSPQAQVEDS
How it was run: as §1

CHEK1 = molecular target: T2, CHEK1 (Homo sapiens, UniProt O14757)
T2 sequence (O14757 1-476): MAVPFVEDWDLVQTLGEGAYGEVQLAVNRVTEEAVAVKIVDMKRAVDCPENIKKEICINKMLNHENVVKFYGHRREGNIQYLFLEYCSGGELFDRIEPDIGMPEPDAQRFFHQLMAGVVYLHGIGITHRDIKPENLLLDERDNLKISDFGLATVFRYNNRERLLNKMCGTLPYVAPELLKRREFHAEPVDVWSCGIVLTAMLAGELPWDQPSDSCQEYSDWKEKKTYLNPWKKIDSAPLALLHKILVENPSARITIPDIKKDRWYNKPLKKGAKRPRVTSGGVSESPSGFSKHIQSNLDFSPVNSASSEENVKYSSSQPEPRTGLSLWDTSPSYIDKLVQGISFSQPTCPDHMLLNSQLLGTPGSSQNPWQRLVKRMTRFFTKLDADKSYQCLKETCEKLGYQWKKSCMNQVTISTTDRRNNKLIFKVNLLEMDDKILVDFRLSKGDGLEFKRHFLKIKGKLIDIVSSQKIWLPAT
How it was run: as §1

KIT, sequence (P10721 26-976): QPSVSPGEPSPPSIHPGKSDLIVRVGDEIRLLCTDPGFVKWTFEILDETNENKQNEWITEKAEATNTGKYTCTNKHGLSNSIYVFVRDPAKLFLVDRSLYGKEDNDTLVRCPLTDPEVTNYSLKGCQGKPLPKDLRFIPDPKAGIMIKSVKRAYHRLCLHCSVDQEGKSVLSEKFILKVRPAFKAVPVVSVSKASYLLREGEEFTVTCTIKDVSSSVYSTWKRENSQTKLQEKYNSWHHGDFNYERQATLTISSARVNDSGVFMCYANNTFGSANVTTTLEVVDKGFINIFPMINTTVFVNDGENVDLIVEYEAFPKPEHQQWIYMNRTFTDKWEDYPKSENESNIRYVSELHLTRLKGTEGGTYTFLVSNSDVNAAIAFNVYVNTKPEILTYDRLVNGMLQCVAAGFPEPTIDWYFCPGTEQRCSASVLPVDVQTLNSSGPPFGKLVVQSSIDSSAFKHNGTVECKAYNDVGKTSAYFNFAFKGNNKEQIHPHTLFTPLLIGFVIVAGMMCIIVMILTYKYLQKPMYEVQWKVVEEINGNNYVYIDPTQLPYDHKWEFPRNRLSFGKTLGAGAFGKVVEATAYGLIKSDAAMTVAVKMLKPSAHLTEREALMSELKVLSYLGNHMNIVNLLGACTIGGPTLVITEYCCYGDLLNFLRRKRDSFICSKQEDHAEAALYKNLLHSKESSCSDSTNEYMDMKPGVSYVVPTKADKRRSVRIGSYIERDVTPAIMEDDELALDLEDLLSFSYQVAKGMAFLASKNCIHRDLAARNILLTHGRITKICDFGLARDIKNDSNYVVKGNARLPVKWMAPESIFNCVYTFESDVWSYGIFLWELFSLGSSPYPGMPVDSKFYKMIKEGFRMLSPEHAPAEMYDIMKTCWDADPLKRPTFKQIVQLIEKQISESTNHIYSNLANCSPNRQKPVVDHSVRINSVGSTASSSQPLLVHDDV

Row | Structure (SMILES) | Activity (KIT) | Activity (FLT-3) | Activity (CHEK1)
1 | COc1ccc(-c2ccc3nccc(N(C)c4ccc(N5CCN(C)CC5)cc4)c3c2)cc1 [6-(4-methoxyphenyl)-N-methyl-N-(4-(4-methylpiperazin-1-yl)phenyl)quinolin-4-amine] | KIT | FLT-3 | 
2 | c1ccc(-c2ccc3nccc(Nc4ccc(N5CCNCC5)cc4)c3c2)cc1 [6-phenyl-N-(4-(piperazin-1-yl)phenyl)quinolin-4-amine] | KIT | FLT-3 | CHEK1
3 | COc1ccc(-c2ccc3nccc(Nc4ccc(N5CCNCC5)cc4)c3c2)cc1 [6-(4-methoxyphenyl)-N-(4-(piperazin-1-yl)phenyl)quinolin-4-amine] | KIT | FLT-3 | CHEK1

Second part, the molecule after the results:

Row | Activity (KIT) | Activity (FLT-3) | Activity (CHEK1) | Structure (SMILES)
4 |  |  | CHEK1 | CN1CCN(c2ccc(Nc3ccnc4ccc(-c5ccc6ccccc6c5)cc34)cc2)CC1 [N-(4-(4-methylpiperazin-1-yl)phenyl)-6-(naphthalen-2-yl)quinolin-4-amine]
5 | KIT |  |  | CN1CCN(c2ccc(Nc3ccnc4ccc(-c5cccc6ccccc56)cc34)cc2)CC1 [N-(4-(4-methylpiperazin-1-yl)phenyl)-6-(naphthalen-1-yl)quinolin-4-amine]
6 | KIT | FLT-3 |  | CN1CCN(c2ccc(Nc3ccnc4ccc(-c5ccncc5)cc34)cc2)CC1 [N-(4-(4-methylpiperazin-1-yl)phenyl)-6-(pyridin-4-yl)quinolin-4-amine]
7 |  | FLT-3 |  | CN1CCN(c2ccc(Nc3ccnc4ccc(-c5ccc(O)cc5)cc34)cc2)CC1 [4-(4-(4-(4-methylpiperazin-1-yl)phenylamino)quinolin-6-yl)phenol]
